Experiment [1] deals with esophageal, liver and breast cancer cell lines. The following applies: several esophageal, dose-dependent; cited from earlier work.
The target in experiment [2] is T1, SMYD3 (Homo sapiens (Human), UniProt Q9H7B4). As to the kind of experiment: SMYD3 cell assay (Trimethyl-MEKK2 In-Cell Western in 293T/17 cells transfected with MEKK2-flag and SMYD3). The class given is cell-based. The following applies: Table 3A; average of n = 1 to n = 50; read-out: SMYD3 cell IC50. Put shortly: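 Methanol-fixed cells stained in-cell Western for trimethyl-MEKK2 and anti-flag. Ratio-based % inhibition against DMSO and background controls; IC50 by non-linear regression, triplicate wells.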

The target in experiment [3] is T1, SMYD3. As to the kind of experiment: SMYD3 biochemical assay (SMYD3 enzyme assay on MEKK2 protein substrate, 3H-SAM scintillation proximity assay). The following applies: Table 3A; average of n = 1 to n = 50; read-out: SMYD3 Biochem IC50. Put shortly: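 Native full-length human SMYD3, expressed in E. coli, was preincubated with compound for 30 min at room temperature in 25 mM Tris-Cl pH 8.0, 1 mM TCEP, 0.005% BSG and 0.005% Tween 20. ³H-SAM plus GST-MEKK2 then started the reaction. It was stopped with unlabeled SAM (100 uM final), and methylated MEKK2 was read by SPA.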

Bounds are passed on as bounds.

As a reminder, the IC50 is the concentration at which inhibition is half-maximal.

T1 sequence (Q9H7B4 whole entry): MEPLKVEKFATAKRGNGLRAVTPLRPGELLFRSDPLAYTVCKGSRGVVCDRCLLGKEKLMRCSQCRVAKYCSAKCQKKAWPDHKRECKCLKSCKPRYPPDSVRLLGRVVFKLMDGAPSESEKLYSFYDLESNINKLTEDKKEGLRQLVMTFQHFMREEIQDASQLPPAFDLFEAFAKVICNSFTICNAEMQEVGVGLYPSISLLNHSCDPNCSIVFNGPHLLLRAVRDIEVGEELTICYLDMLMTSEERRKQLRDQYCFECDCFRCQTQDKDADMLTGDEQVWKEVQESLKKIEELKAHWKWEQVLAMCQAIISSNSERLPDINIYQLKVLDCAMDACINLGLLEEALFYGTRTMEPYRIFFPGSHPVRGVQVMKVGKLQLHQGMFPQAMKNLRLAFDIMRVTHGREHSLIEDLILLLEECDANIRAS

For `Cc1cn(CCN2CCN(c3ccccc3-c3cc(C#N)cc(C(=O)NCCCN4CCCC4)c3)CC2)c2ccccc12` [LLY-507], the “proliferation of cancer cell lines” value in experiment [1] is recorded as “inhibited the proliferation”.
In the case of `NC1CCN(S(=O)(=O)N2[C@@H]3CC[C@H]2C[C@@H](NC(=O)c2cnn(C4CC4)c2)C3)CC1` [compound 637, N-((1R,3r,5S)-8-((4-aminopiperidin-1-yl)sulfonyl)-8-azabicyclo[3.2.1]octan-3-yl)-1-cyclopropyl-1H-pyrazole-4-carboxamide], the concentration for half-maximal inhibition (IC50) at SMYD3 [2] was ≥ 10 µM; on SMYD3 [3], 0.839 µM.
On the same counts, the results for `N[C@H]1CC[C@H](C(=O)N2[C@@H]3CC[C@H]2C[C@@H](NC(=O)c2ccc4c(c2)CC(=O)N4)C3)CC1` [compound 638, N-((1R,3R,5S)-8-((1r,4R)-4-aminocyclohexane-1-carbonyl)-8-azabicyclo[3.2.1]octan-3-yl)-2-oxoindoline-5-carboxamide] are ≥ 10 µM and 0.962 µM.
On the same counts, the results for `C[C@H]1C[C@@H](NC(=O)c2cnn(C3CC3)c2)CCN1S(=O)(=O)N1CCC(N)CC1` [compound 639, N-((2S,4S)-1-((4-aminopiperidin-1-yl)sulfonyl)-2-methylpiperidin-4-yl)-1-cyclopropyl-1H-pyrazole-4-carboxamide] are ≥ 10 µM and 1 µM.
`CC(=O)Nc1ccc(S(=O)(=O)N2CCC(NC(=O)c3cc4c(cc3Cl)NC(=O)C4)CC2)cc1` [compound 641, N-(1-((4-acetamidophenyl)sulfonyl)piperidin-4-yl)-6-chloro-2-oxoindoline-5-carboxamide]: the concentration for half-maximal inhibition (IC50) on SMYD3 [2] is ≥ 10 µM; at SMYD3 [3], 5.93 µM.
For `CC(=O)Nc1ccc(S(=O)(=O)N2CCC(NC(=O)c3ccc4c(c3)CC(=O)N4)CC2)cc1` [compound 643, N-(1-((4-acetamidophenyl)sulfonyl)piperidin-4-yl)-2-oxoindoline-5-carboxamide], in that order: ≥ 10 µM and 16.9 µM.
For `NC1CCN(S(=O)(=O)N2[C@@H]3CC[C@H]2C[C@@H](NC(=O)c2cc(C4CC4)no2)C3)CC1` [compound 644, N-((1R,3r,5S)-8-((4-aminopiperidin-1-yl)sulfonyl)-8-azabicyclo[3.2.1]octan-3-yl)-3-cyclopropylisoxazole-5-carboxamide], in that order: 0.257 µM and 0.0185 µM.

The values are drawn from patent US10266526B2, “Substituted 1,2,3-triazoles as SMYD inhibitors for treating cancer” (EPIZYME, INC., priority 2014, dated 2019).
